Reference: patent publication US9499502B2, “5-substituted iminothiazines and their mono- and dioxides as BACE inhibitors, compositions, and their use” (Merck Sharp & Dohme Corp., priority 2011, dated 2016)

target: soluble human BACE1 catalytic domain (Homo sapiens (Human), UniProt P56817); assay: BACE1 HTRF FRET Assay; settings: BACE1 Ki (nM)
Sequence (P56817 75-416): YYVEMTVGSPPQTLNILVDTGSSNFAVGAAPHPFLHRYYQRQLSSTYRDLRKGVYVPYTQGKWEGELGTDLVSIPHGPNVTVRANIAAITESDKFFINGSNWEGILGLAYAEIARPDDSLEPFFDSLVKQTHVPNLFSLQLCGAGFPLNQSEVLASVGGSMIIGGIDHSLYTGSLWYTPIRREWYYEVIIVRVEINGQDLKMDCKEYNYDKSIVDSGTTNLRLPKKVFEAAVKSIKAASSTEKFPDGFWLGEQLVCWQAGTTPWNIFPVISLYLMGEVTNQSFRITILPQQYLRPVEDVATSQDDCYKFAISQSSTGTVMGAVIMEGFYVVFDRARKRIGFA

Ki [nM] | SMILES
791 | C[C@@]1(c2sc(-c3nnc(-c4ccc(Cl)cc4)o3)cc2F)CS(=O)(=O)[C@@](C)(c2ccccn2)C(=N)N1 [Example 27bz-b]

same assay, conditions: read-out: BACE1 Ki

SMILES | Ki [nM]
C[C@@]1(c2sc(-c3cccc(C#N)c3)cc2F)CS(=O)(=O)[C@](C)(CC(F)(F)F)C(=N)N1 [Example 27bj-b] | 829
C[C@@]1(c2sc(-c3cccc(-c4nnco4)c3)cc2F)CS(=O)(=O)[C@](C)(CC(F)(F)F)C(=N)N1 [Example 27bk-b] | 106
COc1cccc(-c2cc(F)c([C@]3(C)CS(=O)(=O)[C@](C)(CC(F)(F)F)C(=N)N3)s2)c1 [Example 27bl-b] | 7310
COc1cncc(-c2cc(F)c([C@]3(C)CS(=O)(=O)C(C)(CC(F)(F)F)C(=N)N3)s2)c1 (stereo partly drawn) [Example 27bn-a] | 8020
C[C@@]1(c2sc(-c3cccc(C#N)c3)cc2F)CS(=O)(=O)[C@@](C)(c2ccccn2)C(=N)N1 [Example 27bo-a] | 132
C[C@@]1(c2ccccn2)C(=N)N[C@](C)(c2sc(-c3cccc(C#N)c3)cc2F)CS1(=O)=O [Example 27bo-b] | 2720
C[C@@]1(c2sc(-c3cccc(-c4nnco4)c3)cc2F)CS(=O)(=O)[C@@](C)(c2ccccn2)C(=N)N1 [Example 27bp-a] | 17.8
C[C@@]1(c2ccccn2)C(=N)N[C@](C)(c2sc(-c3cccc(-c4nnco4)c3)cc2F)CS1(=O)=O [Example 27bp-b] | 396
C[C@@]1(c2sc(-c3cncc(C#N)c3)cc2F)CS(=O)(=O)[C@@](C)(c2ccccn2)C(=N)N1 [Example 27bq-a] | 268
C[C@@]1(c2ccccn2)C(=N)N[C@](C)(c2sc(-c3cncc(C#N)c3)cc2F)CS1(=O)=O [Example 27bq-b] | 2500
C[C@@]1(c2cccc(F)c2)C(=N)N[C@](C)(c2sc(-c3cccc(C#N)c3)cc2F)CS1(=O)=O [Example 27br-b] | 4930
C[C@@]1(c2ccccc2F)C(=N)N[C@](C)(c2sc(-c3cccc(C#N)c3)cc2F)CS1(=O)=O [Example 27bs-b] | 3170
C[C@]1(CC(F)(F)F)C(=N)N[C@](C)(c2sc(-c3nnc(-c4ccc(Cl)cc4)o3)cc2F)CS1(=O)=O [Example 27by-a] | 29.5
C[C@@]1(c2sc(-c3nnc(-c4ccc(Cl)cc4)o3)cc2F)CS(=O)(=O)[C@](C)(CC(F)(F)F)C(=N)N1 [Example 27by-b] | 450
C[C@@]1(c2sc(-c3nnc(-c4ccc(Cl)cc4)o3)cc2F)CS(=O)(=O)[C@@](C)(c2ccccn2)C(=N)N1 [Example 27bz-a] | 51

Results, then the molecule that gave them:

Ki [nM] | SMILES
41.5 | CC1(C)C(=N)N[C@](C)(c2cc(-c3cccc(-c4nnco4)c3)cs2)CS1(=O)=O [Example 27ah]
74 | CC1(C)C(=N)N[C@](C)(c2cc(-c3cccc(-c4cnco4)c3)cs2)CS1(=O)=O [Example 27ai]
113 | CC1(C)C(=N)N[C@](C)(c2cc(-c3cccc(-c4ccno4)c3)cs2)CS1(=O)=O [Example 27aj]
128 | CC1(C)C(=N)N[C@](C)(c2cc(-c3cncc(-c4ncco4)c3)cs2)CS1(=O)=O [Example 27ak]
93.8 | CC1(C)C(=N)N[C@](C)(c2cc(-c3cncc(-c4cnco4)c3)cs2)CS1(=O)=O [Example 27al]
80.6 | CC1(C)C(=N)N[C@](C)(c2cc(-c3cc(F)cc(-c4cnco4)c3)cs2)CS1(=O)=O [Example 27am]
102 | CC1(C)C(=N)N[C@](C)(c2sc(-c3cncc(C#N)c3)cc2F)CS1(=O)=O [Example 27ap]
11 | CC1(C)C(=N)N[C@](C)(c2sc(-c3cccc(-c4nnco4)c3)cc2F)CS1(=O)=O [Example 27ar]
943 | COc1cncc(-c2cc(F)c([C@]3(C)CS(=O)(=O)C(C)(C)C(=N)N3)s2)n1 [Example 27au]
663 | CC1(C)C(=N)N[C@](C)(c2sc(-c3ccnc(C4CC4)c3)cc2F)CS1(=O)=O [Example 27av]
125 | Cc1noc(-c2cccc(-c3cc(F)c([C@]4(C)CS(=O)(=O)C(C)(C)C(=N)N4)s3)c2)n1 [Example 27aw]
858 | Cc1nnc(-c2ccc(F)c(-c3cc(F)c([C@]4(C)CS(=O)(=O)C(C)(C)C(=N)N4)s3)c2)o1 [Example 27ax]
480 | Cc1nnc(-c2cccc(-c3cc(F)c([C@]4(C)CS(=O)(=O)C(C)(C)C(=N)N4)s3)c2)o1 [Example 27ay]
14 | CC1(C)C(=N)N[C@](C)(c2sc(-c3cncc(-c4nnco4)c3)cc2F)CS1(=O)=O [Example 27az]
48.9 | CC1(C)C(=N)N[C@](C)(c2sc(-c3nnc(-c4ccc(C#N)cc4)o3)cc2F)CS1(=O)=O [Example 27bi]
135 | COCC1(COC)C(=N)N[C@](C)(c2sc(-c3cccc(C#N)c3)cc2Cl)CS1(=O)=O [Example 27bt]

Ki [nM] | SMILES
1170 | COCC1(COC)C(=N)N[C@](C)(c2sc(-c3cccc(-c4nnco4)c3)cc2Cl)CS1(=O)=O [Example 27bu]
79 | COCC1(COC)C(=N)N[C@](C)(c2sc(-c3cc4cccc(OC)c4[nH]3)cc2Cl)CS1(=O)=O [Example 27bv]
163 | C[C@]1(CC2CCOCC2)C(=N)N[C@](C)(c2sc(-c3cncc(C#N)c3)cc2Cl)CS1(=O)=O [Example 27bw]
1180 | CC1(C)C(=N)N[C@](C)(c2sc(-c3cc4ccccc4s3)cc2Cl)CS1(=O)=O [Example 27f]
2030 | CC1(C)C(=N)N[C@](C)(c2sc(-c3csc4ccccc34)cc2Cl)CS1(=O)=O [Example 27g]
70.9 | CC1(C)C(=N)N[C@](C)(c2sc(-c3cccc(OC(F)(F)F)c3)cc2Cl)CS1(=O)=O [Example 27h]
170 | CC1(C)C(=N)N[C@](C)(c2sc(-c3cc(F)cc(F)c3)cc2Cl)CS1(=O)=O [Example 27i]
5150 | CC1(C)C(=N)N[C@](C)(c2sc(-c3ccc(F)c(C#N)c3)cc2Cl)CS1(=O)=O [Example 27j]
926 | COc1cc(-c2cc(Cl)c([C@]3(C)CS(=O)(=O)C(C)(C)C(=N)N3)s2)ccn1 [Example 27k]
5340 | CC1(C)C(=N)N[C@](C)(c2sc(-c3cnn4c3CCC4)cc2Cl)CS1(=O)=O [Example 27m]
273 | CC1(C)C(=N)N[C@](C)(c2sc(-c3ccn4ncnc4c3)cc2Cl)CS1(=O)=O [Example 27n]
66.6 | CC1(C)C(=N)N[C@](C)(c2sc(-c3cccc(OC(F)F)c3)cc2Cl)CS1(=O)=O [Example 27o]
2530 | CC1(C)C(=N)N[C@](C)(c2sc(-c3ccc4nncn4c3)cc2Cl)CS1(=O)=O [Example 27p]
297 | CC1(C)C(=N)N[C@](C)(c2sc(-c3ccc4ncnn4c3)cc2Cl)CS1(=O)=O [Example 27q]
448 | COCCn1cc(-c2cc(Cl)c([C@]3(C)CS(=O)(=O)C(C)(C)C(=N)N3)s2)cn1 [Example 27r]

same assay, conditions: read-out: BACE1 Ki; Ki calculated from IC50 using the Cheng-Prusoff equation

SMILES | Ki [nM]
Cc1ccc(CNC(=O)c2cc(Cl)c([C@]3(C)CS(=O)(=O)C(C)(C)C(=N)N3)s2)nn1 [Example 22e] | 759
CC1(C)C(=N)N[C@](C)(c2sc(C(=O)NCc3ccccc3Cl)cc2Cl)CS1(=O)=O [Example 22h] | 1620
CC1(C)C(=N)N[C@](C)(c2sc(C(=O)NCc3cccc(F)c3)cc2Cl)CS1(=O)=O [Example 22i] | 1160
CC1(C)C(=N)N[C@](C)(c2sc(C(=O)NCc3ccc(F)cc3)cc2Cl)CS1(=O)=O [Example 22j] | 753
CC1(C)C(=N)N[C@](C)(c2sc(C(=O)NCc3ccc(Cl)cc3)cc2Cl)CS1(=O)=O [Example 22k] | 863
CC1(C)C(=N)N[C@](C)(c2sc(C(=O)NCc3cccc(Cl)c3)cc2Cl)CS1(=O)=O [Example 22l] | 1270
CC1(C)C(=N)N[C@](C)(c2sc(C(=O)NCc3ccc(C#N)cc3)cc2Cl)CS1(=O)=O [Example 22m] | 1030
CC1(C)C(=N)N[C@](C)(c2sc(C(=O)NCC3CCC3)cc2Cl)CS1(=O)=O [Example 22n] | 917
CC1(C)C(=N)N[C@](C)(c2sc(C(=O)NCc3ncc(F)cc3Cl)cc2Cl)CS1(=O)=O [Example 22o] | 1180
CC1(C)C(=N)N[C@](C)(c2sc(C(=O)NCc3ccc(C(F)(F)F)cn3)cc2Cl)CS1(=O)=O [Example 22p] | 1800
CC1(C)C(=N)N[C@](C)(c2sc(C(=O)NCc3cnoc3)cc2Cl)CS1(=O)=O [Example 22q] | 359
CC1(C)C(=N)N[C@](C)(c2sc(C(=O)NCc3cnsn3)cc2Cl)CS1(=O)=O [Example 22r] | 186
CC1(C)C(=N)N[C@](C)(c2sc(C(=O)NCc3cnn4ccccc34)cc2Cl)CS1(=O)=O [Example 22s] | 128
CC1(C)C(=N)N[C@](C)(c2sc(C(=O)NCc3ccncn3)cc2Cl)CS1(=O)=O [Example 22t] | 3130
CC1(C)C(=N)N[C@](C)(c2sc(C(=O)NCc3ccsn3)cc2Cl)CS1(=O)=O [Example 22v] | 292

Continued, values first:

Ki [nM] | SMILES
26.1 | CC1(C)C(=N)N[C@](C)(c2sc(-c3cc(F)cc(-c4cnco4)c3)cc2Cl)CS1(=O)=O [Example 27aa]
15.4 | CC1(C)C(=N)N[C@](C)(c2sc(-c3cc(F)cc(-c4nnco4)c3)cc2Cl)CS1(=O)=O [Example 27ab]
22.3 | CC1(C)C(=N)N[C@](C)(c2sc(-c3cncc(-c4cnco4)c3)cc2Cl)CS1(=O)=O [Example 27ac]
44.4 | CC1(C)C(=N)N[C@](C)(c2sc(-c3cncc(-c4ncco4)c3)cc2Cl)CS1(=O)=O [Example 27ad]
8.2 | CC1(C)C(=N)N[C@](C)(c2sc(-c3cccc(-c4nnco4)c3)cc2Cl)CS1(=O)=O [Example 27b]
258 | CC1(C)C(=N)N[C@](C)(c2sc(-c3nnc(-c4ccccc4)o3)cc2Cl)CS1(=O)=O [Example 27ba]
76.1 | COc1ccc(-c2nnc(-c3cc(Cl)c([C@]4(C)CS(=O)(=O)C(C)(C)C(=N)N4)s3)o2)cc1 [Example 27bd]
49.2 | CC1(C)C(=N)N[C@](C)(c2sc(-c3nnc(-c4ccc(C#N)cc4)o3)cc2Cl)CS1(=O)=O [Example 27be]
12.8 | CC1(C)C(=N)N[C@](C)(c2sc(-c3cccc(-c4cnco4)c3)cc2Cl)CS1(=O)=O [Example 27c]
64.3 | CC1(C)C(=N)N[C@](C)(c2sc(-c3cccc(-c4ccno4)c3)cc2Cl)CS1(=O)=O [Example 27d]
